Measured values from article PMC2266763, “Dimerization of the transmembrane domain of amyloid precursor proteins and familial Alzheimer's disease mutants” (BMC Neuroscience, 2008).
“Also recorded” adds a separate entry of the source. One block for each molecule: values may come before it. Ends that are not written are not given here. Lys‑tag = not defined here

B1: wild-type APP-TM peptide (peptide)
peptide: GAIIGLMVGGVVIATVIVITLVML-{Lys‑tag}
modifications: not fully specified (N-terminus); reading uncertain
notes: amyloid precursor protein (APP), human, residues 700 to 723, contain the TM segment; Two versions were synthesised: Lys-tag-W-(700-723)-Lys-tag (FRET donor) and Lys-tag-E(EDANS)-(700-723)-Lys-tag (FRET acceptor); also called wild-type APP transmembrane domain peptide; source: synthetic peptide (solid-phase synthesis, purified by reverse phase C4-HPLC); not shown: oligo-lysine tag (Lys-tag), …

Experiments:
[1] = test system: APP-TM dimer (self-association); test: SDS-PAGE oligomeric state; type: binding, human; details: 20 mM SDS; for Oligomeric state by SDS-PAGE: 40 mM Tris, 8 mM Acetate (pH 7.0), 5% glycerol, 0 – 25 μM peptide, boiled 5 minutes; for Oligomeric state by SDS-PAGE, concentration range: at different concentrations (0 – 25 μM peptide), pH 7.0
Method: Samples contained 20 mM SDS, 40 mM Tris, 8 mM Acetate (pH 7.0), 5% glycerol, and 0 – 25 μM peptide. They were boiled for 5 minutes and subjected to SDS-PAGE using precast 4–12% Nupage gels (Invitrogen) and a standard running buffer. SeeBlue®Plus2 molecular weight markers from Invitrogen were used as standards.

[2] = test system: APP-TM dimer (self-association); test: FRET dimer dissociation, APP-TM peptides in SDS micelles; type: binding, human; details: for Kd: concentration dependence of FRET (Trp donor / EDANS acceptor, equimolar), 20 mM SDS, 40 mM Tris, 8 mM Acetate (pH 7.0), 0 – 90 μM peptide, overnight, room temperature, average error 3.6%, read-out: Apparent dimer dissociation constant
Method: (§1) Mixed peptide-SDS micelles were prepared by the addition of concentrated SDS to peptide solutions, such that the final concentrations were 20 mM SDS, 40 mM Tris, 8 mM Acetate (pH 7.0) and 0 – 90 μM peptide. The samples were sonicated and incubated overnight in the dark at room temperature before making fluorescence measurements.
(§2) Fluorescence measurements were made at room temperature using a PTI QM-1 fluorescence spectrophotometer. A quartz cuvette with a 2 mm excitation pathlength and a 1 cm emission pathlength was used. The excitation wavelength was 285 nm and the bandpass was 4 nm. We obtained a quantitative measure of the degree of peptide oligomerization by integrating the EDANS emission signal from 472–496 nm and dividing this value with the integrated Trp emission signal from 350–375 nm. This ratio of acceptor fluorescence to donor fluorescence is denoted either as Acceptor/Donor ratio or A/D ratio and can be used to compare peptide oligomerization at varying concentrations.
The apparent dissociation constants were determined using an equation derived from first principles of monomer-dimer equilibrium, where Kd = [A]^2/[A2]. The fluorescence acceptor-donor ratio was plotted against total peptide concentration and fit to the following equation:
[AT]=Kd(Fobs−Fmin/Fmax−Fmin)/2(1−Fobs−Fmin/Fmax−Fmin)^2
Where AT = total APP-TM peptide concentration, F = A/D ratio, fraction dimer = (Fobs-Fmin)/Fmax-Fmin), and % dimer = 100% (fraction dimer). The goodness-of-fit to the model were assessed using the chi-squared test, nonlinear least squares correlation, and examination of residuals.

[3] = Solubility of APP-TM peptides; type: physicochemical
[4] = test system: wild-type APP-TM peptide; test: FRET hetero-oligomerization of wild-type and mutant APP-TM peptides; type: binding, human; details: Trp-labeled wild-type with EDANS-labeled V717G, constant 1:1 ratio, 20 mM SDS
Method: as §1, §2

[5] = test system: Aβ40 and Aβ42 production; test: Aβ ELISA immunoassay, HEK293 cells expressing Swedish mutant APP and γ-secretase components; type: cell-based, human; details: for Effect on levels of Aβ (Aβ40 and Aβ42): overnight incubation, 0, 20 or 100 μM peptide, conditioned media; for Effect on levels of Aβ (Aβ40 and Aβ42) / Effect on Aβ42/40 ratio: relative to control samples
Method: Stably transfected HEK293 cells overexpressing the Swedish double mutant (K670N/M671L) of APP751, presenilin 1, nicastrin, PEN-2 and APH-1 were grown to confluency in DMEM media containing 10% fetal bovine serum. The cells were grown for another 48 hours with the media changed twice at equivalent time intervals. Cells were then incubated overnight in fresh media containing 0, 20 or 100 μM APP-TM peptides. The media was collected and subjected to an immunoassay to determine the Aβ42 and Aβ40 concentrations. The ELISA BioSource immunoassay human β-amyloid 1–40/1–42 colorimetric kit (catalogue number KHB3482/KHB3481) was used and the standard protocol was followed. This sandwich ELISA technique makes use of an immobilized Aβ antibody that binds both Aβ40 and Aβ42 at an N-terminal epitope. The bound Aβ40 and Aβ42 are then detected using a C-terminal antibody specific for either Aβ40 or Aβ42. […] Therefore, this assay is ideally suited to detect any disturbances in the normal processing of endogeneuous full length APP in the presence of APP-TM peptides.

[6] = test system: HEK293 cells stably overexpressing Swedish-mutant APP751 and γ-secretase components; test: Sulforhodamine B (SRB) cytotoxicity assay; type: cell-based; details: SRB assay, 0, 10, 20, and 100 μM peptide, overnight
Method: Stably transfected HEK293 cells overexpressing Swedish-mutant APP751 and γ-secretase components were plated at 15,000 cells/well in DMEM media containing 10% fetal bovine serum. The cells were grown for another 48 hours with the media changed twice at equivalent time intervals. Cells were then incubated overnight in fresh media containing 0, 10, 20, and 100 μM APP-TM peptides, and the SRB cytotoxicity assay was performed as previously described.

[7] = test system: APP-TM oligomer (self-association); test: FRET of APP-TM peptides in DOPG phospholipid vesicles; type: binding, human; details: 1:20 peptide:DOPG, 50 mM Tris, 10 mM NaCl (pH 7.0), room temperature, excitation 285 nm
Method: DOPG vesicles with incorporated peptides were prepared via sonication of dried lipid films in the presence of peptide solution at a molar ratio of 1 mole of peptide: 20 moles of DOPG as previously described. The samples contained 50 mM Tris, 10 mM NaCl (pH 7.0) as the buffer. […] Purified peptide-incorporated vesicle fractions were used for fluorescence measurements.
as §2

[8] = target: T714I APP-TM peptide (human); test: FRET or BRET; apparent; dimer to monomers; concentration dependence of the A/D ratio in equimolar mixtures of donor- and acceptor-labelled peptide, 20 mM SDS, 40 mM Tris, 8 mM acetate (pH 7.0), 0 – 90 μM peptide, room temperature
[9] = target: the molecule itself; test: SDS-PAGE of the oligomeric state; 20 mM SDS, 40 mM Tris, 8 mM acetate (pH 7.0), 5% glycerol, 0 – 25 μM peptide, boiled 5 minutes, 4–12% Nupage gels
[10] = target: the molecule itself; test: FRET or BRET; apparent; dimer to monomers; concentration dependence of the A/D ratio in equimolar mixtures of donor- and acceptor-labelled peptide, 20 mM SDS, 40 mM Tris, 8 mM acetate (pH 7.0), 0 – 90 μM peptide, room temperature
[11] = target: B1; test: FRET or BRET; mixed: Trp-labelled wild-type with equimolar Edans-labelled mutant peptide in 20 mM SDS; A/D ratio against total peptide concentration (V717G) and at 50 μM total peptide (all mutants); baseline A/D 0.24 for non-interacting peptides; details: both partners purified
[12] = target: V717F APP-TM peptide (human); test: FRET or BRET; apparent; dimer to monomers; concentration dependence of the A/D ratio in equimolar mixtures of donor- and acceptor-labelled peptide, 20 mM SDS, 40 mM Tris, 8 mM acetate (pH 7.0), 0 – 90 μM peptide, room temperature
[13] = 0, 20 or 100 μM peptide, overnight

Kd [2]: 395 µM | Solubility [3]: only soluble in the presence of SDS
Molecule: Lys-tag(W/EEDANS)GAIIGLMVGGVVIAIVIGITLVML Lys-tag [T714I, FAD mutant T714I APP-TM peptide with N- and C-terminal oligo-lysine tags]
Oligomeric state by SDS-PAGE [1]: predominantly monomeric | Relative dimer stability ([2]; among wild-type and FAD mutants tested, SDS micelles): least stable dimer

Kd [2]: 125 µM | Solubility [3]: only soluble in the presence of SDS
Molecule: Lys-tag(W/EEDANS)GAIIGLMVGGVVIATVIFITLVML Lys-tag [V717F, FAD mutant V717F APP-TM peptide with N- and C-terminal oligo-lysine tags]
Oligomeric state by SDS-PAGE [1]: predominantly monomeric

Molecule: Lys-tag(W/EEDANS)GAIIGLMVGGVVIATVIGITLVML Lys-tag [V717G, FAD mutant V717G APP-TM peptide with N- and C-terminal oligo-lysine tags]
Oligomeric state by SDS-PAGE [1]: populated both monomer and dimer states | Oligomeric state by SDS-PAGE, concentration range [1]: formed monomer-dimer mixtures across the same concentration range | Total peptide concentration at which A/D ratio shows signs of saturation (hetero-oligomerization) [4]: above 50 μM | Concentration dependence of Aβ reduction [5, 13]: strong concentration dependence | Inhibitory effect on Aβ42 versus Aβ40 production [5, 13]: greater inhibitory effect on Aβ42 production (Fig. 7B) than on Aβ40 production | Suppression of Aβ production relative to wild-type peptide [5, 13]: greater than that of the wild-type peptide; also recorded: significantly greater inhibition of Aβ production than the wild-type peptide | Effect on levels of Aβ (Aβ40 and Aβ42) [5]: drastic reduction in the levels of Aβ relative to control samples | Effect on Aβ42/40 ratio [5, 13]: reduction in the Aβ42/40 ratio relative to control samples | Cell survival / viability [6]: neither peptide caused a reduction in cell survival

Molecule: Lys-tag(W/EEDANS)GAIIGLMVGGVVIATVIVITLVML Lys-tag [wild-type, APP-TM peptide, residues 700 to 723 of human APP, with N- and C-terminal oligo-lysine tags; Trp or Glu-EDANS labeled]
Oligomeric state by SDS-PAGE [1]: formed stable dimers | Oligomeric state by SDS-PAGE, concentration range [1]: predominantly dimeric under all concentrations tested | FRET signature (donor quenching, acceptor sensitization) in phospholipid bilayers [7]: Typical donor quenching and acceptor sensitization was observed | Concentration dependence of Aβ reduction [5, 13]: strong concentration dependence | Inhibitory effect on Aβ42 versus Aβ40 production [5, 13]: greater inhibitory effect on Aβ42 production (Fig. 7B) than on Aβ40 production | Effect on levels of Aβ (Aβ40 and Aβ42) [5]: drastic reduction in the levels of Aβ relative to control samples | Effect on Aβ42/40 ratio [5, 13]: reduction in the Aβ42/40 ratio relative to control samples | Cell survival / viability [6]: neither peptide caused a reduction in cell survival

Kd [8]: 395 µM
Molecule: T714I APP-TM peptide

Molecule: B1
stoichiometry N [9]: 2 | Kd [10]: 10.3 µM

binding result [11]: binds
B2: V717G APP-TM peptide (peptide)
peptide: GAIIGLMVGGVVIATVIGITLVML-{Lys‑tag}
modifications: not fully specified (N-terminus); reading uncertain
notes: amyloid precursor protein (APP), human, residues 700 to 723 with the familial Alzheimer's disease mutation V717G; Two versions (Trp donor, Glu-EDANS acceptor) as for m1; source: synthetic peptide (solid-phase synthesis, purified by reverse phase C4-HPLC); not shown: oligo-lysine tag (Lys-tag), N-terminal, kept; Trp (donor version) or Glu-EDANS (acceptor version), N-terminal, kept; oligo-lysine …
stoichiometry N [9]: 2 | Kd [10]: 20.4 µM

Kd [12]: 125 µM | binding result [11]: binds
B3: V717F APP-TM peptide (peptide)
peptide: GAIIGLMVGGVVIATVIFITLVML-{Lys‑tag}
modifications: not fully specified (N-terminus); reading uncertain
notes: amyloid precursor protein (APP), human, residues 700 to 723 with the familial Alzheimer's disease mutation V717F; Two versions (Trp donor, Glu-EDANS acceptor) as for m1; Said to be soluble only in the presence of SDS; source: synthetic peptide (solid-phase synthesis, purified by reverse phase C4-HPLC); not shown: oligo-lysine tag (Lys-tag), N-terminal, kept; Trp (donor version) or Glu-EDANS …
